The target in experiment [1] is T1, IRE1α (Homo sapiens, UniProt O75460).
T1 construct: purchased Signal Chem E31-11G
The experiment in a line: Biochemical assay to detect inhibition of kinase activity of IRE1α (ADP-Glo). The procedure:
Biochemical Assays to Detect Inhibition of Kinase Activity of IRE1α
The kinase reactions were performed in 384 well white ProxiPlate-384 Plus plates (PERKIN Elmer 6008280) using 25 mM MOPS assay buffer with 1 mM dithiothreitol, 25 mM MgCl2, 12.5 mM β-glycerophosphate, 5 mM EGTA, and 50 μg/mL BSA. Test compounds were prepared on the day of assay and dispensed using D300 digital dispenser as a 10-point ½ log dilution series in duplicate, normalized to a final DMSO concentration of 3%. Test compounds were pre-incubated for 30 min at room temperature with 10 nM IRE1α kinase (E31-11G from Signal Chem) in 2.5 μL of assay buffer and the reaction started by addition of 2.5 μL of ATP in assay buffer, to give a final ATP concentration of 100 μM and 5 nM IRE1α kinase. After 4 hours incubation at room temperature the reactions were stopped and the kinase activity determined using the ADP-Glo™ reagent from Promega, according to the manufacturer's instructions. Luminescence was measured on a luminometer (EnVision, PerkinElmer) and IC50 values calculated by fitting a sigmoidal curve to percent inhibition of control versus Log10 of compound concentration.

The test system of experiment [2] is ARPE-19 cells stably expressing XBP1 (a.a. 1-376). In words: Cellular XBP1 splicing assay (NanoLuc luciferase, thapsigargin). Type of experiment: cell-based. The following applies: thapsigargin 150 nM. The method, boiled down: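 ARPE-19 cells carrying an XBP1(1-376)-NanoLuc splicing reporter were pretreated with compound (10-point ½-log series, 0.117% DMSO) for 30 min, then stressed with 150 nM thapsigargin for 4 h at 37° C. Luminescence was read, and IC50 values came from sigmoidal fits of percent inhibition of control.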

The target of experiment [3] is T1, IRE1α. In words: Biochemical assay: inhibition of RNase activity of IRE1α. The following applies: enzyme 0.325 nM, substrate 100 nM, 20 minutes. The method, boiled down:
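RNase cleavage monitored as dequenching of a 5′ Alexa Fluor 647/3′ quencher RNA oligo (100 nM), stopped with 5 M urea after 20 min at room temperature. Enzyme 0.325 nM, preceded by 30 min compound pre-incubation; buffer Tris/MgCl2/KCl/DTT/Tween, 4% DMSO final. IC50 from curve fit of % inhibition.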

Broadly, the IC50 is the concentration at which inhibition is half-maximal.

T1 sequence (O75460 468-977 limits assumed): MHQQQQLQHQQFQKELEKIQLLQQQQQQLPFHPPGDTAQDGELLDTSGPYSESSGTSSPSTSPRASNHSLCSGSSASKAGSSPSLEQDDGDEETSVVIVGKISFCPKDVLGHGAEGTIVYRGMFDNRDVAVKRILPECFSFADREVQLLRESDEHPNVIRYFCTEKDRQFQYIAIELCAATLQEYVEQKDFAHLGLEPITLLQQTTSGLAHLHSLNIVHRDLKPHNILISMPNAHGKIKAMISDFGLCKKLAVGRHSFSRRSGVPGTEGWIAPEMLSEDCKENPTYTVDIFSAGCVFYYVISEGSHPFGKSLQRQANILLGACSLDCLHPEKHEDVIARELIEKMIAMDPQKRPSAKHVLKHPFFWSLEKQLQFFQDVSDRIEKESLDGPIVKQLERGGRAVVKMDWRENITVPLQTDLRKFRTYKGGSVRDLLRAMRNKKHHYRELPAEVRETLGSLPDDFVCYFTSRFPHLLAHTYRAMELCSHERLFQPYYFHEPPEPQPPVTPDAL

`CC(C)n1nc(-c2ccc(NS(=O)(=O)c3ccccc3F)c(F)c2)c2c(N)ncc(C3=CCC(NC4COC4)CC3)c21` (single isomer, unassigned) [Compound B59, N-(4-(4-amino-1-isopropyl-7-(4-(oxetan-3-ylamino)cyclohex-1-en-1-yl)-1H-pyrazolo[4,3-c]pyridin-3-yl)-2-fluorophenyl)-2-fluorobenzenesulfonamide]: the 50% inhibitory concentration (IC50) on IRE1α [1] was 5.9 nM; in experiment [2] (4 hour), 36 nM.
In the case of `COCCN[C@H]1CC[C@H](c2cnc(N)c3c(-c4cc(F)c(NS(=O)(=O)c5cc(F)ccc5F)cc4F)nn(C(C)C)c32)CC1` [Compound A31, N-(4-(4-amino-1-isopropyl-7-((1r,4r)-4-((2-methoxyethyl)amino)cyclohexyl)-1H-pyrazolo[4,3-c]pyridin-3-yl)-2,5-difluorophenyl)-2,5-difluorobenzenesulfonamide], the concentration for half-maximal inhibition (IC50) came out at 8.6 nM against IRE1α [3] and 39 nM in experiment [2] (Homo sapiens, ARPE-19, 4 h).
In the case of `COCCN[C@H]1CC[C@H](c2cnc(N)c3c(-c4cc(F)c(NS(=O)(=O)c5ccc(F)cc5)cc4F)nn(C(C)C)c32)CC1` [Compound A32, N-(4-(4-amino-1-isopropyl-7-((1r,4r)-4-((2-methoxyethyl)amino)cyclohexyl)-1H-pyrazolo[4,3-c]pyridin-3-yl)-2,5-difluorophenyl)-4-fluorobenzenesulfonamide], the half-inhibitory concentration (IC50) against IRE1α [3] is 17 nM; in experiment [2] (Homo sapiens, ARPE-19, 4 h) it was 110 nM.
In the same order, the values of `COCCN(CCOC)[C@H]1CC[C@H](c2cnc(N)c3c(-c4cc(F)c(NS(=O)(=O)c5ccccc5F)cc4F)nn(C(C)C)c32)CC1` [Compound A35, N-(4-(4-amino-7-((1r,4r)-4-(bis(2-methoxyethyl)amino)cyclohexyl)-1-isopropyl-1H-pyrazolo[4,3-c]pyridin-3-yl)-2,5-difluorophenyl)-2-fluorobenzenesulfonamide] are 60 nM and 55 nM.
For the compound `COCCN(C)[C@H]1CC[C@H](c2cnc(N)c3c(-c4cc(F)c(NS(=O)(=O)c5ccccc5F)cc4F)nn(C(C)C)c32)CC1` [Compound A36, N-(4-(4-amino-1-isopropyl-7-((1r,4r)-4-((2-methoxyethyl)(methyl)amino)cyclohexyl)-1H-pyrazolo[4,3-c]pyridin-3-yl)-2,5-difluorophenyl)-2-fluorobenzenesulfonamide], the IC50 against IRE1α [3] was 13 nM; in experiment [2] (Homo sapiens, ARPE-19, 4 h) it was 18 nM.
Consider `COCCN[C@H]1CC[C@H](c2cnc(N)c3c(-c4cc(F)c(NS(=O)(=O)c5ccccc5F)cc4F)nn(C(C)C)c32)CC1` [Compound A37, N-(4-(4-amino-1-isopropyl-7-((1r,4r)-4-((2-methoxyethyl)amino)cyclohexyl)-1H-pyrazolo[4,3-c]pyridin-3-yl)-2,5-difluorophenyl)-2-fluorobenzenesulfonamide], for which the IC50 at IRE1α [3] is 12 nM; in experiment [2] (Homo sapiens, ARPE-19, 4 h), 20 nM.
Take `CC(C)n1nc(-c2cc(F)c(NS(=O)(=O)c3ccccc3F)cc2F)c2c(N)ncc([C@H]3CC[C@H](N(C)C4COC4)CC3)c21` [Compound A38]: the IC50 against IRE1α [3] was 12 nM; in experiment [2] (Homo sapiens, ARPE-19, 4 h), 13 nM.
As for `CC(C)n1nc(-c2ccc(NS(=O)(=O)Cc3ccccc3Cl)c(F)c2)c2c(N)ncc([C@H]3CC[C@H](NC4COC4)CC3)c21` [Compound A39, N-(4-(4-amino-1-isopropyl-7-((1r,4r)-4-(oxetan-3-ylamino)cyclohexyl)-1H-pyrazolo[4,3-c]pyridin-3-yl)-2-fluorophenyl)-1-(2-chlorophenyl)methanesulfonamide], the half-inhibitory concentration (IC50) on IRE1α [3] was found to be 0.3 nM; in experiment [2] (Homo sapiens, ARPE-19, 4 h), 1.7 nM.
Take `CC(C)n1nc(-c2cc(F)c(NS(=O)(=O)c3ccccc3F)cc2F)c2c(N)ncc([C@H]3CC[C@H](N(C)C)CC3)c21` [Compound A40, N-(4-(4-amino-7-((1r,4r)-4-(dimethylamino)cyclohexyl)-1-isopropyl-1H-pyrazolo[4,3-c]pyridin-3-yl)-2,5-difluorophenyl)-2-fluorobenzenesulfonamide]: the half-maximal inhibitory concentration (IC50) at IRE1α [3] is 5.6 nM; in experiment [2] (Homo sapiens, ARPE-19, 4 h), 27 nM.
For the compound `Nc1ncc([C@H]2CC[C@H](NC3COC3)CC2)c2c1c(-c1ccc(NS(=O)(=O)Cc3ccccc3F)c(F)c1)nn2C1CC1` [Compound A54, N-(4-(4-amino-1-cyclopropyl-7-((1r,4r)-4-(oxetan-3-ylamino)cyclohexyl)-1H-pyrazolo[4,3-c]pyridin-3-yl)-2-fluorophenyl)-1-(2-fluorophenyl)methanesulfonamide], the IC50 on IRE1α [3] amounted to 0.9 nM; in experiment [2] (Homo sapiens, ARPE-19, 4 h), 9 nM.
In the case of `Nc1ncc([C@H]2CC[C@H](NC3COC3)CC2)c2c1c(-c1ccc(NS(=O)(=O)Cc3ccccc3Cl)c(F)c1)nn2C1CC1` [Compound A55, N-(4-(4-amino-1-cyclopropyl-7-((1r,4r)-4-(oxetan-3-ylamino)cyclohexyl)-1H-pyrazolo[4,3-c]pyridin-3-yl)-2-fluorophenyl)-1-(2-chlorophenyl)methanesulfonamide], the IC50 was determined as 0.7 nM against IRE1α [3] and 7.2 nM in experiment [2] (Homo sapiens, ARPE-19, 4 h).
Consider `Nc1ncc([C@H]2CC[C@H](NC3COC3)CC2)c2c1c(-c1ccc(NS(=O)(=O)c3ccccc3Cl)c(F)c1)nn2C1CC1` [Compound A56, N-(4-(4-amino-1-cyclopropyl-7-((1r,4r)-4-(oxetan-3-ylamino)cyclohexyl)-1H-pyrazolo[4,3-c]pyridin-3-yl)-2-fluorophenyl)-2-chlorobenzenesulfonamide], for which the IC50 came out at 3.5 nM on IRE1α [3] and 15 nM in experiment [2] (Homo sapiens, ARPE-19, 4 h).
`COCC(C)N[C@H]1CC[C@H](c2cnc(N)c3c(-c4ccc(NS(=O)(=O)Cc5ccccc5Cl)c(F)c4)nn(C(C)C)c32)CC1` (stereo partly shown) [Compound A58, N-(4-(4-amino-1-isopropyl-7-((1r,4r)-4-((1-methoxypropan-2-yl)amino)cyclohexyl)-1H-pyrazolo[4,3-c]pyridin-3-yl)-2-fluorophenyl)-1-(2-chlorophenyl)methanesulfonamide]: the IC50 stood at 0.6 nM against IRE1α [3] and 4.9 nM in experiment [2] (Homo sapiens, ARPE-19, 4 h).
In the same order, the values of `COCC(C)NC1CC=C(c2cnc(N)c3c(-c4ccc(NS(=O)(=O)c5ccccc5Cl)c(F)c4)nn(C(C)C)c23)CC1` (stereo not shown) [Compound B3] are 7 nM and 11 nM.
For `CCn1nc(-c2cc(F)c(NS(=O)(=O)c3ccccc3F)cc2F)c2c(N)ncc(C3=CCC(NC4COC4)CC3)c21` (stereo not shown) [Compound B30, N-(4-(4-amino-1-ethyl-7-(4-(oxetan-3-ylamino)cyclohex-1-en-1-yl)-1H-pyrazolo[4,3-c]pyridin-3-yl)-2,5-difluorophenyl)-2-fluorobenzenesulfonamide], the IC50 against IRE1α [3] came to 82 nM; in experiment [2] (Homo sapiens, ARPE-19, 4 h), 740 nM.
On to `CCn1nc(-c2cc(F)c(NS(=O)(=O)c3ccccc3Cl)cc2F)c2c(N)ncc(C3=CCC(NC4COC4)CC3)c21` (stereo not shown) [Compound B31, N-(4-(4-amino-1-ethyl-7-(4-(oxetan-3-ylamino)cyclohex-1-en-1-yl)-1H-pyrazolo[4,3-c]pyridin-3-yl)-2,5-difluorophenyl)-2-chlorobenzenesulfonamide], for which the IC50 came to 47 nM on IRE1α [3] and 130 nM in experiment [2] (Homo sapiens, ARPE-19, 4 h).
For `CCn1nc(-c2cc(F)c(NS(=O)(=O)Cc3ccccc3Cl)cc2F)c2c(N)ncc(C3=CCC(NC4COC4)CC3)c21` (stereo not shown) [Compound B32, N-(4-(4-amino-1-ethyl-7-(4-(oxetan-3-ylamino)cyclohex-1-en-1-yl)-1H-pyrazolo[4,3-c]pyridin-3-yl)-2,5-difluorophenyl)-1-(2-chlorophenyl)methanesulfonamide], the IC50 against IRE1α [3] is 21 nM; in experiment [2] (Homo sapiens, ARPE-19, 4 h), 340 nM.
Turning to `CCn1nc(-c2ccc(NS(=O)(=O)c3cc(OC)ccc3Cl)c(F)c2)c2c(N)ncc(C3=CCC(NC4COC4)CC3)c21` (stereo not shown) [Compound B37, N-(4-(4-amino-1-ethyl-7-(4-(oxetan-3-ylamino)cyclohex-1-en-1-yl)-1H-pyrazolo[4,3-c]pyridin-3-yl)-2-fluorophenyl)-2-chloro-5-methoxybenzenesulfonamide], the concentration for half-maximal inhibition (IC50) against IRE1α [3] was 20 nM; in experiment [2] (Homo sapiens, ARPE-19, 4 h), 74 nM.
Take `CC(C)n1nc(-c2cc(F)c(NS(=O)(=O)c3ccccc3F)cc2F)c2c(N)ncc(C3=CCC(NC4COC4)CC3)c21` (stereo not shown) [Compound B60, N-(4-(4-amino-1-isopropyl-7-(4-(oxetan-3-ylamino)cyclohex-1-en-1-yl)-1H-pyrazolo[4,3-c]pyridin-3-yl)-2,5-difluorophenyl)-2-fluorobenzenesulfonamide]: the half-inhibitory concentration (IC50) against IRE1α [3] amounted to 79 nM; in experiment [2] (Homo sapiens, ARPE-19, 4 h), 240 nM.
For the compound `CC(C)n1nc(-c2ccc(NS(=O)(=O)c3ccccc3Cl)c(F)c2)c2c(N)ncc(C3=CCC(NCCF)CC3)c21` (stereo not shown) [Compound B63, N-(4-(4-amino-7-(4-((2-fluoroethyl)amino)cyclohex-1-en-1-yl)-1-isopropyl-1H-pyrazolo[4,3-c]pyridin-3-yl)-2-fluorophenyl)-2-chlorobenzenesulfonamide], the IC50 against IRE1α [3] was determined as 16 nM; in experiment [2] (Homo sapiens, ARPE-19, 4 h), 21 nM.

For the origin of these results see patent US20220153734A1, “Pyrazolopyridine Compounds For IRE1 Inhibition” (Optikira, LLC, priority 2019, published 2022).
